Source: PubChem BioAssay (NCI)
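How tested: cells in 96-well plates exposed to compound for 48 hours at five concentrations. GI50 marks 50% less growth. The concentration for full growth arrest is given as TGI.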

How the values were obtained:
Assay in all cases: NCI tumour cell line growth inhibition, 48 h
[1] = test system: 786-0 renal
[2] = test system: A498 renal
[3] = test system: A549 NSCLC
[4] = test system: ACHN renal
[5] = test system: BT-549 breast
[6] = test system: CAKI-1 renal
[7] = test system: COLO 205 colon
[8] = test system: DU-145 prostate
[9] = test system: EKVX NSCLC
[10] = test system: HCC-2998 colon
[11] = test system: HCT-116 colon
[12] = test system: HCT-15 colon
[13] = test system: HL-60(TB) leukemia
[14] = test system: HOP-62 NSCLC
[15] = test system: HOP-92 NSCLC
[16] = test system: HS 578T breast
[17] = test system: HT29 colon
[18] = test system: IGROV1 ovarian
[19] = test system: K-562 leukemia
[20] = test system: KM12 colon
[21] = test system: LOX IMVI melanoma
[22] = test system: M14 melanoma
[23] = test system: MALME-3M melanoma
[24] = test system: MCF7 breast
[25] = test system: MDA-MB-231 breast
[26] = test system: MDA-MB-435
[27] = test system: MOLT-4 leukemia
[28] = test system: NCI-H226 lung
[29] = test system: NCI-H23 lung

COc1ccc2oc(=O)cc(C3c4ccc([nH]4)C(c4cc(=O)oc5ccc(OC)cc45)c4ccc([nH]4)C(c4cc(=O)oc5ccc(OC)cc45)c4ccc([nH]4)C(c4cc(=O)oc5ccc(OC)cc45)c4ccc3[nH]4)c2c1 (configuration not stated)
GI50 [1]: 1 µM
TGI [1]: 2.2 µM
GI50 [2]: 4.09 µM
TGI [2]: 12.7 µM
GI50 [3]: 4.23 µM
TGI [3]: 14.3 µM
GI50 [4]: 2.12 µM
TGI [4]: 6.71 µM
GI50 [5]: 2.02 µM
TGI [5]: 5.36 µM
GI50 [6]: 2.16 µM
TGI [6]: 6.77 µM
GI50 [7]: 1.75 µM
TGI [7]: 3.6 µM
GI50 [8]: 2.07 µM
TGI [8]: 4.75 µM
GI50 [9]: 7.58 µM
TGI [9]: 22.3 µM
GI50 [10]: 2.17 µM
TGI [10]: 4.06 µM
GI50 [11]: 0.57 µM
TGI [11]: 1.93 µM
GI50 [12]: 0.399 µM
TGI [12]: 1.53 µM
GI50 [13]: 0.357 µM
TGI [13]: 0.976 µM
GI50 [14]: 2.73 µM
TGI [14]: 9.56 µM
GI50 [15]: 2.05 µM
TGI [15]: 6.5 µM
GI50 [16]: 2.8 µM
TGI [16]: 9.43 µM
GI50 [17]: 2.28 µM
TGI [17]: 5.44 µM
GI50 [18]: 2.44 µM
TGI [18]: 10.8 µM
GI50 [19]: 0.413 µM
TGI [19]: 2.03 µM
GI50 [20]: 2.91 µM
TGI [20]: 10.8 µM
GI50 [21]: 0.814 µM
TGI [21]: 2.43 µM
GI50 [22]: 1.24 µM
TGI [22]: 4.6 µM
GI50 [23]: 1.54 µM
TGI [23]: 3.73 µM
GI50 [24]: 0.364 µM
TGI [24]: 2.16 µM
GI50 [25]: 2.15 µM
TGI [25]: 9.04 µM
GI50 [26]: 1.9 µM
TGI [26]: 6.66 µM
GI50 [27]: 0.414 µM
TGI [27]: 4.24 µM
GI50 [28]: 1.36 µM
TGI [28]: 4.63 µM
GI50 [29]: 2.37 µM
